# In US5475029A, “Farnesyl compounds as cholesterol lowering agents” (The Board of Trustees of the Leland Stanford Junior …, priority 1993, dated 1995):
# How the values were obtained:
# total cellular protein = test: Total cellular protein synthesis (TCA-precipitable counts); format: cell-based; conditions: 10 μg/ml
# Experimental: (§1) Measurement of HMGal and HMG-CoA Reductase Synthesis Rates Cells plated into 60×15 mm dishes were grown in 5% LPS MEM with 0.25 mg/ml active geneticin for 24 hours. These cells were washed with PBS and grown for 24 hours in 5% LPS MEM supplemented with 0.25 mg/ml active geneticin, 10 μM compactin and 0.1 mM mevalonate. After 24 hours, the medium was removed, the cells were washed with PBS and the medium was replaced with methionine-free MEM supplemented with 5% LPS, 250 μg/ml of active geneticin, 10 μM compactin, and 0.1 mM mevalonate. In addition, 20 mM mevalonate or 10 μg/ml farnesyl acetate was included in those plates previously treated with these compounds. […] Cells were washed, lysed and the HMGal and HMG-CoA reductase proteins were immunoprecipitated, subjected to SDS-PAGE and quantified. […]
# (§2) Farnesyl compounds reduce translation and stimulate degradation of HMG-CoA reductase and HMGal A reduction in HMGal specific activity triggered by the farnesyl compounds could have been the result of a decrease in HMGal synthesis, an increase in HMGal degradation, or a combination of changes in both the synthesis and degradation rates. In order to test whether the farnesyl compounds impact synthesis, the rates of HMGal, HMG-CoA reductase, and total cellular protein synthesis were measured by [^35 S]methionine incorporation in the presence and absence of 10 μg/ml farnesyl acetate.
# HMG-CoA reductase [1] = test: HMG-CoA reductase degradation rate (pulse-chase); format: cell-based; conditions: 10 μg/ml during chase; untreated 9.3 hours
# Experimental: Measurement of HMGal and HMG-CoA Reductase Degradation Rates Cells grown in 60×15 mm dishes were washed once with ice-cold PBS and starved for 1 hour in 1 ml of methionine-free MEM supplemented with 5% LPS, 250 μg/ml of active geneticin, 10 μM compactin, and 0.1 mM mevalonate. These cells were radio-labeled for 2 hours in 300 μl of the methionine-free starvation medium containing 100 μCi of Tran^35 S-label (>1,000 Ci/mmol). Cells were incubated in an MEM-based chase medium containing 2 mM methionine, 5% LPS, 250 μg/ml of active geneticin, 10 μM compactin, and 0.1 mM mevalonate. During the chase period, some plates also had either 20 mM mevalonate, 10 μg/ml farnesyl acetate or 10 μg/ml ethyl farnesyl ether added to them as indicated in the figure legend. Following the chase, cells were washed, lysed and the HMGal and HMG-CoA reductase proteins were immunoprecipitated, subjected to SDS-PAGE and quantified.
# In order to test whether the farnesyl compounds impact degradation, the rates of degradation for HMGal, HMG-CoA reductase, and total cellular protein were measured in the presence and absence of 10 μg/ml farnesyl acetate and ethyl farnesyl ether.
# β-galactosidase = β-galactosidase activity in CHO-Gal control cells; format: cell-based
# Experimental: β-galactosidase Specific Activity--In vitro β-galactosidase activity was measured using the substrate, o-nitrophenyl-β-D-galactopyranoside. Specific activities were calculated using protein concentration values.
# To confirm that the reduction in HMGal activity was the result of a regulatory function specifically targeting the membrane domain of HMGal, the effects of farnesyl acetate on β-galactosidase activity were measured in vitro for both CHO-HMGal cells and CHO-Gal cells. The CHO-Gal cells had been stably transfected with a construct identical to the HMGal construct (using the same vector, promoter, and 5' and 3' flanking regions) except that the construct in the CHO-Gal cells codes for a soluble β-galactosidase protein instead of the HMGal fusion protein with the membrane domain of HMG-CoA reductase. In this experiment, the CHO-Gal cells served to control for any artifacts farnesyl acetate might cause in the β-galactosidase assay or any nonspecific effects farnesyl acetate might have on the rates of protein synthesis or degradation.
# squalene synthase = test: Squalene synthase assay (cell lysate); format: biochemical; conditions: 4 nM to 0.2 mM
# Experimental: Squalene Synthase Assay--The cell lysate was prepared immediately prior to running the assay. Cells were washed three times with PBS, once with a 0.1M potassium phosphate buffer (pH 7.4) containing 5 mM MgCl2 and 5 mM CHAPS, and once with a 0.01M potassium phosphate buffer (pH 7.4) containing 0.5 mM MgCl2 and 0.5 mM CHAPS. Cells were scraped with a rubber policeman in approximately 0.5 ml of the final wash buffer and dounce homogenized with 20 strokes, while on ice. An aliquot of cell lysate was examined with a light microscope to ensure that essentially all cells in the sample were lysed. An additional aliquot of cell lysate was saved for protein determination. […] The squalene was isolated by TLC and the radioactivity of the squalene bands was measured as previously described. […]
# Since both farnesyl compounds have a structural similarity to farnesyl pyrophosphate, the substrate for squalene synthase, and some of the farnesyl compounds that have been tested function as a competitive inhibitor of squalene synthase, the effects of farnesyl acetate on in vitro squalene synthase activity was measured. As a positive control, squalene synthase activity was also measured in tile presence of zaragozic acid A, a potent competitive inhibitor of the enzyme. […]
# HMG-CoA reductase [2] = test: HMG-CoA reductase synthesis rate ([35S]methionine incorporation); format: cell-based; conditions: 10 μg/ml
# Experimental: as §1, §2
structure (smiles),measurement,setting,value
CC(=O)OCC=C(C)CCC=C(C)CCC=C(C)C [farnesyl acetate],effect on total protein synthesis (TCA-precipitable counts),total cellular protein,Neither farnesyl acetate nor mevalonate have a significant effect
same,half-life of HMG-CoA reductase,HMG-CoA reductase [1],3.6 h
same,reduction of the half-life of HMG-CoA reductase,HMG-CoA reductase [1],60%
same,change of β-galactosidase activity of CHO-Gal cells,β-galactosidase; 10 μg/ml,not changed significantly
same,change of β-galactosidase activity of CHO-Gal cells,β-galactosidase; 20 μg/ml,essentially unchanged
same,effect on in vitro squalene synthase activity,squalene synthase,negligible effect
same,reduction in the rate of HMG-CoA reductase synthesis,HMG-CoA reductase [2],60%
